The values below come from patent US9120779B2, “Inhibitors of HCV NS5A” (PRESIDIO PHARMACEUTICALS, INC., priority 2008, dated 2015).

Bounds are passed on as bounds.

The first test relates to HCV genotype 1b replicon in Huh 7 cells. The experiment in a line: HCV replicon assay (luciferase readout, 1b_Huh-Luc/Neo-ET cell line). It counts as cell-based. The settings on record: Hepatitis C virus, Huh-7, 72 h, read-out: Inhibition of HCV genotype 1b, Table 5, 72 h incubation. A digest of the protocol: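 Inhibition expressed as percent of untreated control luciferase signal and fitted to a Hill-slope equation for EC50, with repeat determinations. Compounds were added in triplicate to Huh 7 cells stably expressing the genotype 1b luciferase replicon, with 72 h exposure.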
(In general: In antiviral work, replicon cells carry a viral genome segment that copies itself.)
For `O=C(N[C@@H](C(=O)N1CCC[C@H]1c1ncc(-c2ccc(C34CCC(c5cnc([C@@H]6CCCN6C(=O)[C@H](NC(=O)C6CC6)c6ccccc6)[nH]5)(CC3)CC4)cc2)[nH]1)c1ccccc1)C1CC1` [compound 607], the EC50 is under 1 nM. Turning to `COC(=O)N[C@H](C(=O)N1CCC[C@H]1c1ncc(C23CCC(c4ccc(-c5cnc([C@@H]6CCCN6C(=O)[C@H](NC(=O)OC)c6ccccc6)[nH]5)cc4)(CC2)CC3)[nH]1)[C@@H](C)OC` [compound 609], the EC50 is under 1 nM. On the same count and under the same terms, in the case of `COC(=O)N[C@H](Cc1ccccc1)C(=O)N1CCC[C@H]1c1ncc(C23CCC(c4ccc(-c5cnc([C@@H]6CCCN6C(=O)[C@H](NC(=O)OC)c6ccccc6)[nH]5)cc4)(CC2)CC3)[nH]1` [compound 610] it was under 1 nM. For `COC(=O)N[C@@H](C(=O)N1CCC[C@H]1c1ncc(-c2ccc(C34CCC(c5cnc([C@@H]6CCCN6C(=O)[C@@H](c6ccccc6)N6CCOCC6)[nH]5)(CC3)CC4)cc2)[nH]1)c1ccccc1` [compound 611], the EC50 was under 1 nM. As to `COC(=O)N[C@H](C(=O)N1CCC[C@H]1c1ncc(-c2ccc(C34CCC(c5cnc([C@@H]6CCCN6C(=O)[C@@H](NC(=O)OC)[C@@H](C)OC)[nH]5)(CC3)CC4)cc2)[nH]1)[C@@H](C)OC` [compound 612], the EC50 was under 1 nM. Same read-out and setting: in the case of `COC(=O)N[C@@H](C(=O)N1CCC[C@H]1c1ncc(-c2ccc(C34CCC(c5cnc([C@@H]6CCCN6C(=O)[C@H](OC)c6ccccc6)[nH]5)(CC3)CC4)cc2)[nH]1)c1ccccc1` [compound 615] it was under 1 nM; in that of `COC(=O)N[C@@H](C(=O)N1CCC[C@H]1c1ncc(-c2ccc(C34CCC(c5cnc([C@@H]6CCCN6C(=O)[C@H](NC(=O)OC)C(C)C)[nH]5)(CC3)CC4)cc2)[nH]1)c1ccccc1` [compound 616], under 1 nM. Still for that read-out and setting: under `COC(=O)N[C@H](C(=O)N1CCC[C@H]1c1ncc(C23CCC(c4ccc(-c5cnc([C@@H]6CCCN6C(=O)[C@H](NC(=O)OC)c6ccccc6)[nH]5)cc4)(CC2)CC3)[nH]1)C(C)C` [compound 617] stands under 1 nM; under `COC(=O)N[C@@H](C(=O)N1CCC[C@H]1c1ncc(-c2ccc(C34CCC(c5cnc([C@@H]6CCCN6C(=O)[C@@H](c6ccccc6)N(C)C)[nH]5)(CC3)CC4)cc2)[nH]1)c1ccccc1` [compound 618], under 1 nM. The same measure, in the same setting: in the case of `CCN(CC)[C@@H](C(=O)N1CCC[C@H]1c1ncc(C23CCC(c4ccc(-c5cnc([C@@H]6CCCN6C(=O)[C@H](NC(=O)OC)c6ccccc6)[nH]5)cc4)(CC2)CC3)[nH]1)c1ccccc1` [compound 619] it was under 1 nM. Turning to `COC(=O)N[C@@H](C(=O)N1CCC[C@H]1c1ncc(C23CCC(c4ccc(-c5cnc([C@@H]6CCCN6C(=O)[C@H](OC)c6ccccc6)[nH]5)cc4)(CC2)CC3)[nH]1)c1ccccc1` [compound 620], the EC50 was under 1 nM. Same read-out and setting: under `COC(=O)N[C@@H](C(=O)N1CCC[C@H]1c1ncc(C23CCC(c4ccc(-c5cnc([C@@H]6CCCN6C(=O)[C@H](NC(=O)OC)C(C)C)[nH]5)cc4)(CC2)CC3)[nH]1)c1ccccc1` [compound 621] stands under 1 nM; under `COC(=O)N[C@@H](C(=O)N1CCC[C@H]1c1ncc(C23CCC(c4ccc(-c5cnc([C@@H]6CCCN6C(=O)[C@@H](c6ccccc6)N(C)C)[nH]5)cc4)(CC2)CC3)[nH]1)c1ccccc1` [compound 622], under 1 nM. For `COC(=O)N[C@@H](C(=O)N1CCC[C@H]1c1ncc(C23CCC(c4ccc(-c5cnc([C@@H]6CCCN6C(=O)[C@@H](c6ccccc6)N6CCCC6)[nH]5)cc4)(CC2)CC3)[nH]1)c1ccccc1` [compound 623], the EC50 is under 1 nM. Turning to `COC(=O)N[C@H](C(=O)N1CCC[C@H]1c1ncc(-c2ccc(C34CCC(c5cnc([C@@H]6CCCN6C(=O)[C@H](NC(=O)OC)c6ccccc6)[nH]5)(CC3)CC4)cc2)[nH]1)C(C)C` [compound 624], the EC50 is under 1 nM. Consider `COC(=O)N[C@@H](C(=O)N1CCC[C@H]1c1ncc(C23CCC(c4ccc(-c5cnc([C@@H]6CCCN6C(=O)[C@H](NC(=O)C6CC6)c6ccccc6)[nH]5)cc4)(CC2)CC3)[nH]1)c1ccccc1` [compound 625], for which the EC50 is under 1 nM. For the compound `COC(=O)N[C@H](C(=O)N1CCC[C@H]1c1ncc(-c2ccc(C34CCC(c5cnc([C@@H]6CCCN6C(=O)[C@H](NC(=O)OC(C)(C)C)c6ccccc6)[nH]5)(CC3)CC4)cc2)[nH]1)C(C)C` [compound 626], the EC50 is under 1 nM. Take `COC(=O)N[C@H](C(=O)N1CCC[C@H]1c1ncc(-c2ccc(C34CCC(c5cnc([C@@H]6CCCN6C(=O)[C@@H](NC(=O)OC)C(C)C)[nH]5)(CC3)CC4)cc2)[nH]1)C(C)C` [compound 627]: the EC50 was under 1 nM.

For the compound `CC(C)[C@H](NC(=O)N1CCOCC1)C(=O)N1CCC[C@H]1c1ncc(-c2ccc(C34CCC(c5cnc([C@@H]6CCCN6C(=O)[C@@H](NC(=O)N6CCOCC6)C(C)C)[nH]5)(CC3)CC4)cc2)[nH]1` [compound 628], the EC50 is over 1000 nM.

Take `CC(C)[C@H](NC(=O)N1CC[C@@H](O)C1)C(=O)N1CCC[C@H]1c1ncc(-c2ccc(C34CCC(c5cnc([C@@H]6CCCN6C(=O)[C@@H](NC(=O)N6CC[C@@H](O)C6)C(C)C)[nH]5)(CC3)CC4)cc2)[nH]1` [compound 629]: the EC50 is over 1000 nM. Still for that read-out and setting: under `CC(C)[C@H](NC(=O)N1CCC(O)CC1)C(=O)N1CCC[C@H]1c1ncc(-c2ccc(C34CCC(c5cnc([C@@H]6CCCN6C(=O)[C@@H](NC(=O)N6CCC(O)CC6)C(C)C)[nH]5)(CC3)CC4)cc2)[nH]1` [compound 630] stands over 1000 nM; under `COC(=O)N[C@H](C(=O)N1CCC[C@H]1c1ncc(-c2ccc(C34CCC(c5cnc([C@@H]6CCCN6C(=O)[C@H](NC(=O)C6CC6)c6ccccc6)[nH]5)(CC3)CC4)cc2)[nH]1)C(C)C` [compound 631], under 1 nM; under `COC(=O)N[C@H](C(=O)N1CCC[C@H]1c1ncc(-c2ccc(C34CCC(c5cnc([C@@H]6CCCN6C(=O)[C@@H](c6ccccc6)N6CCCCC6)[nH]5)(CC3)CC4)cc2)[nH]1)C(C)C` [compound 632], under 1 nM. As for `CC(C)[C@H](NC(=O)N1CCC(C)(O)CC1)C(=O)N1CCC[C@H]1c1ncc(-c2ccc(C34CCC(c5cnc([C@@H]6CCCN6C(=O)[C@@H](NC(=O)N6CCC(C)(O)CC6)C(C)C)[nH]5)(CC3)CC4)cc2)[nH]1` [compound 634], the EC50 is under 1 nM. For `CC(C)[C@H](NC(=O)N1CC[C@H](O)C1)C(=O)N1CCC[C@H]1c1ncc(-c2ccc(C34CCC(c5cnc([C@@H]6CCCN6C(=O)[C@@H](NC(=O)N6CC[C@H](O)C6)C(C)C)[nH]5)(CC3)CC4)cc2)[nH]1` [compound 635], the EC50 was under 1 nM.

As for `COC(=O)N[C@@H](C(=O)N1CCC[C@H]1c1ncc(-c2ccc(C34CCC(c5cnc([C@@H]6CCCN6C(=O)[C@@H](NC(=O)N6CCN(C)CC6)C(C)C)[nH]5)(CC3)CC4)cc2)[nH]1)c1ccccc1` [compound 637], the EC50 is 1 to 9.9 nM. The same measure, in the same setting: in the case of `CC(C)[C@H](NC(=O)N1CCC(=O)CC1)C(=O)N1CCC[C@H]1c1ncc(-c2ccc(C34CCC(c5cnc([C@@H]6CCCN6C(=O)[C@@H](NC(=O)N6CCC(=O)CC6)C(C)C)[nH]5)(CC3)CC4)cc2)[nH]1` [compound 638] it was over 1000 nM. On the same count and under the same terms, under `CC(C)[C@H](NC(=O)N1CCCCC1)C(=O)N1CCC[C@H]1c1ncc(-c2ccc(C34CCC(c5cnc([C@@H]6CCCN6C(=O)[C@@H](NC(=O)N6CCCCC6)C(C)C)[nH]5)(CC3)CC4)cc2)[nH]1` [compound 639] stands over 1000 nM.

Turning to `COC(=O)N[C@H](C(=O)N1CCC[C@H]1c1ncc(-c2ccc(C34CCC(c5cnc([C@@H]6CCCN6C(=O)[C@@H](NC(=O)N6CCCCC6)C(C)C)[nH]5)(CC3)CC4)cc2)[nH]1)C(C)C` [compound 640], the EC50 was over 1000 nM.

In the case of `COC(=O)N[C@H](C(=O)N1CCC[C@H]1c1ncc(-c2ccc(C34CCC(c5cnc([C@@H]6CCCN6C(=O)[C@@H](NC(=O)C6CCOCC6)C(C)C)[nH]5)(CC3)CC4)cc2)[nH]1)C(C)C` [compound 641], the EC50 is over 1000 nM. As for `COC(=O)N[C@@H](C(=O)N1CCC[C@H]1c1ncc(-c2ccc(C34CCC(c5cnc([C@@H]6CCCN6C(=O)[C@@H](NC(=O)N6CCC(=O)CC6)C(C)C)[nH]5)(CC3)CC4)cc2)[nH]1)c1ccccc1` [compound 644], the EC50 was 1 to 9.9 nM. On the same count and under the same terms, in the case of `COC(=O)N[C@H](C(=O)N1CCC[C@H]1c1ncc(C23CCC(c4ccc(-c5cnc([C@@H]6CCCN6C(=O)[C@@H](NC(=O)N6CCOCC6)C(C)C)[nH]5)cc4)(CC2)CC3)[nH]1)C(C)C` [compound 645] it was under 1 nM; in that of `COC(=O)N[C@H](C(=O)N1CCC[C@H]1c1ncc(C23CCC(c4ccc(-c5cnc([C@@H]6CCCN6C(=O)[C@@H](NC(=O)N6CCN(C)CC6)C(C)C)[nH]5)cc4)(CC2)CC3)[nH]1)C(C)C` [compound 646], 10 to 999 nM; in that of `COC(=O)N[C@H](C(=O)N1CCC[C@H]1c1ncc(C23CCC(c4ccc(-c5cnc([C@@H]6CCCN6C(=O)[C@@H](NC(=O)C6CCN(C)CC6)C(C)C)[nH]5)cc4)(CC2)CC3)[nH]1)C(C)C` [compound 647], 10 to 999 nM.

The same test, now with this note: read-out: Inhibition of HCV genotype 1b, Table 5, 72 h incubation.
With `COC(=O)N[C@H](C(=O)N1CCC[C@H]1c1ncc(-c2ccc(C34CCC(c5cnc([C@@H]6CCCN6C(=O)[C@@H](NC(=O)N6CCC(O)CC6)C(C)C)[nH]5)(CC3)CC4)cc2)[nH]1)C(C)C` [compound 633], the EC50 is under 1 nM. As to `COC(=O)N[C@H](C(=O)N1CCC[C@H]1c1ncc(-c2ccc(C34CCC(c5cnc([C@@H]6CCCN6C(=O)[C@@H](NC(=O)N6CCOCC6)C(C)C)[nH]5)(CC3)CC4)cc2)[nH]1)C(C)C` [compound 636], the EC50 is under 1 nM. Same read-out and setting: in the case of `COC(=O)N[C@@H](C(=O)N1CCC[C@H]1c1ncc(-c2ccc(C34CCC(c5cnc([C@@H]6CCCN6C(=O)[C@@H](NC(=O)N6CCN(C)CC6)C(C)C)[nH]5)(CC3)CC4)cc2)[nH]1)c1ccccc1` [compound 642] it was 1 to 9.9 nM; in that of `COC(=O)N[C@@H](C(=O)N1CCC[C@H]1c1ncc(-c2ccc(C34CCC(c5cnc([C@@H]6CCCN6C(=O)[C@@H](NC(=O)N6CCOCC6)C(C)C)[nH]5)(CC3)CC4)cc2)[nH]1)c1ccccc1` [compound 643], 1 to 9.9 nM.
